Assay results taken from article PMC8799717, “Pharmacological targeting PIKfyve and tubulin as an effective treatment strategy for double-hit lymphoma” (Cell Death Discovery, 2022).

What was measured:
Assay in all cases: biochemical
Parameters in all cases: KINOMEscan active-site-directed competition binding panel, 468 kinases, percent of DMSO control at 1 uM
Details in all cases: KINOMEscan binding, percent of DMSO control; read-out: Ctrl%
[1] = molecular target: T1, ABL1(E255K)-phosphorylated (Homo sapiens, UniProt P00519, E255K)
T1 construct: phosphorylated

[2] = molecular target: T2, ABL1(M351T)-phosphorylated (Homo sapiens, UniProt P00519, M351T)
T2 construct: phosphorylated

ACVR2B = ACVR2B (Homo sapiens, UniProt Q13705)
BRSK2 = BRSK2 (Homo sapiens, UniProt Q8IWQ3)
CLK4 = CLK4 (Homo sapiens, UniProt Q9HAZ1)
CSF1R = CSF1R (Homo sapiens, UniProt P07333)
DAPK2 = DAPK2 (Homo sapiens, UniProt Q9UIK4)
FGFR3(G697C) = FGFR3(G697C) (Homo sapiens, UniProt P22607, G697C)
HCK = HCK (Homo sapiens, UniProt P08631)
KIT(D816H) = KIT(D816H) (Homo sapiens, UniProt P10721, D816H)
LRRK2 = LRRK2 (Homo sapiens, UniProt Q5S007)
MAP3K4 = MAP3K4 (Homo sapiens, UniProt Q9Y6R4)
MAP4K3 = MAP4K3 (Homo sapiens, UniProt Q8IVH8)
MET = MET (Homo sapiens, UniProt P08581)
MRCKA = molecular target: T3, MRCKA (Homo sapiens, UniProt Q5VT25)
T3 construct: gene CDC42BPA

MUSK = MUSK (Homo sapiens, UniProt O15146)
RIOK3 = RIOK3 (Homo sapiens, UniProt O14730)
[3] = molecular target: T4, RSK4(Kin.Dom.1-N-terminal) (Homo sapiens, UniProt Q9UK32)
T4 construct: gene RPS6KA6; Kin.Dom.1-N-terminal

SIK = molecular target: T5, SIK (Homo sapiens, UniProt P57059)
T5 construct: gene SIK1

SNARK = molecular target: T6, SNARK (Homo sapiens, UniProt Q9H093)
T6 construct: gene NUAK2

STK39 = STK39 (Homo sapiens, UniProt Q9UEW8)
SYK = SYK (Homo sapiens, UniProt P43405)
TEC = TEC (Homo sapiens, UniProt P42680)
YSK4 = molecular target: T7, YSK4 (Homo sapiens, UniProt Q56UN5)
T7 construct: gene MAP3K19

Sequence of CSF1R (P07333 whole entry): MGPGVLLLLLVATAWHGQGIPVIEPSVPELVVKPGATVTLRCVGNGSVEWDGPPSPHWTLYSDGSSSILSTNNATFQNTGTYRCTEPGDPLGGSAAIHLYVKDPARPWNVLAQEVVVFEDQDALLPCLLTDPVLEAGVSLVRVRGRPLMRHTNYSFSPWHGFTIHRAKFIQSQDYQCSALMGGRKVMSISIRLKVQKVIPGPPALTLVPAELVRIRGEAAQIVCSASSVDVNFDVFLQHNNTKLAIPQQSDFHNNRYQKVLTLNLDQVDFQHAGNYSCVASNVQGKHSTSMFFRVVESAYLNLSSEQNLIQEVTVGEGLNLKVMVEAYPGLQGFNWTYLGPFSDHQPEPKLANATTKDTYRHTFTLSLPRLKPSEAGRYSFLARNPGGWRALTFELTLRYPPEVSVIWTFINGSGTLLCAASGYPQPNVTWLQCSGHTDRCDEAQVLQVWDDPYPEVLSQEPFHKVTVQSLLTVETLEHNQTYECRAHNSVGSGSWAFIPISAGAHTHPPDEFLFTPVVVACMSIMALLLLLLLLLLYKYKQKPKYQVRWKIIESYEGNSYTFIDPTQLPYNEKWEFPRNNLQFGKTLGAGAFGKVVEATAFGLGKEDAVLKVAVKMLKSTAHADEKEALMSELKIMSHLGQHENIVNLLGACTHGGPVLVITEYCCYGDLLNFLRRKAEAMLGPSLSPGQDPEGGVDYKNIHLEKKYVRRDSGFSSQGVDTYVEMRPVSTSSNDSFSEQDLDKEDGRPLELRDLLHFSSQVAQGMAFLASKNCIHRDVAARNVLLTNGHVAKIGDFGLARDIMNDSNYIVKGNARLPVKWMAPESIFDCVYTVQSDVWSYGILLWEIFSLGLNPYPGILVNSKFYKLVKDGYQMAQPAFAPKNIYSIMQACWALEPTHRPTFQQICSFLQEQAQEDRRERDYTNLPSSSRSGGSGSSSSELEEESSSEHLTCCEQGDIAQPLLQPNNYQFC
Sequence of MET (P08581 whole entry): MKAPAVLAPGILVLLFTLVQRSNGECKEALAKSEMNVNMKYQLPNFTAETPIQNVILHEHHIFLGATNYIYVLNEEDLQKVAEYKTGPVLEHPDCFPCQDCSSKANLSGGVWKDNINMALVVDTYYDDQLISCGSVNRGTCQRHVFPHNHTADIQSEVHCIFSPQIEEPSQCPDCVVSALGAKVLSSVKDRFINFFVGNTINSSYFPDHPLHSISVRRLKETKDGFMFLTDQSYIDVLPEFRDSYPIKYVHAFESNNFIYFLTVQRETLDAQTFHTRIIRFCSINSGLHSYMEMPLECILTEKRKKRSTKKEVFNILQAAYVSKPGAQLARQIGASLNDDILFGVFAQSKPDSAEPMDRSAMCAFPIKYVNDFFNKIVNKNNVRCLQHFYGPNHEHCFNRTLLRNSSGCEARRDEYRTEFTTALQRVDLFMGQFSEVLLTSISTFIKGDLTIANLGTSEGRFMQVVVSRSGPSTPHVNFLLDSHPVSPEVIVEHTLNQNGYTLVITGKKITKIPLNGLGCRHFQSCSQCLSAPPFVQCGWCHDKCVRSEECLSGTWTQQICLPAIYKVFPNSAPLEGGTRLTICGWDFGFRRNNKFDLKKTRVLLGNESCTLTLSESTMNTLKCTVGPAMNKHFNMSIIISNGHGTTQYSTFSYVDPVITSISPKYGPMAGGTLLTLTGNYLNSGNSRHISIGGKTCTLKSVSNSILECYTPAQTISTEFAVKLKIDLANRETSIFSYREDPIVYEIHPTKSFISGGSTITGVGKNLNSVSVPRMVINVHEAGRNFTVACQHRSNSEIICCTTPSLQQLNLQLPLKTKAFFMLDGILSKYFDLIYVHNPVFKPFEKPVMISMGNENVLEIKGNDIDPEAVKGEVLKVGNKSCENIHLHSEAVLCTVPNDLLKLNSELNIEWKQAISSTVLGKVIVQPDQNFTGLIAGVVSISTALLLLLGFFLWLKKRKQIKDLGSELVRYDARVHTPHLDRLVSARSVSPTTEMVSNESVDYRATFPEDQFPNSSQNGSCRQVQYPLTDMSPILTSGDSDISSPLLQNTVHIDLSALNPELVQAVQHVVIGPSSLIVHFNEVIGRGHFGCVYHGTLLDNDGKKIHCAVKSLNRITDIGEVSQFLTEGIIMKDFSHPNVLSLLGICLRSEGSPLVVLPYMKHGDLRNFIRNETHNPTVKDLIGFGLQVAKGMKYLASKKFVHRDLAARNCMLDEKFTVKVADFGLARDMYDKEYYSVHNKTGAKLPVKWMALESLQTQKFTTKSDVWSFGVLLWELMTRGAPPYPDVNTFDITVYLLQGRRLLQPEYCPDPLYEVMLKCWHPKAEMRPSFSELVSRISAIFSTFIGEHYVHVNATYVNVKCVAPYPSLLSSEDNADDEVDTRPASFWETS
Sequence of KIT(D816H) (P10721 whole entry D816H): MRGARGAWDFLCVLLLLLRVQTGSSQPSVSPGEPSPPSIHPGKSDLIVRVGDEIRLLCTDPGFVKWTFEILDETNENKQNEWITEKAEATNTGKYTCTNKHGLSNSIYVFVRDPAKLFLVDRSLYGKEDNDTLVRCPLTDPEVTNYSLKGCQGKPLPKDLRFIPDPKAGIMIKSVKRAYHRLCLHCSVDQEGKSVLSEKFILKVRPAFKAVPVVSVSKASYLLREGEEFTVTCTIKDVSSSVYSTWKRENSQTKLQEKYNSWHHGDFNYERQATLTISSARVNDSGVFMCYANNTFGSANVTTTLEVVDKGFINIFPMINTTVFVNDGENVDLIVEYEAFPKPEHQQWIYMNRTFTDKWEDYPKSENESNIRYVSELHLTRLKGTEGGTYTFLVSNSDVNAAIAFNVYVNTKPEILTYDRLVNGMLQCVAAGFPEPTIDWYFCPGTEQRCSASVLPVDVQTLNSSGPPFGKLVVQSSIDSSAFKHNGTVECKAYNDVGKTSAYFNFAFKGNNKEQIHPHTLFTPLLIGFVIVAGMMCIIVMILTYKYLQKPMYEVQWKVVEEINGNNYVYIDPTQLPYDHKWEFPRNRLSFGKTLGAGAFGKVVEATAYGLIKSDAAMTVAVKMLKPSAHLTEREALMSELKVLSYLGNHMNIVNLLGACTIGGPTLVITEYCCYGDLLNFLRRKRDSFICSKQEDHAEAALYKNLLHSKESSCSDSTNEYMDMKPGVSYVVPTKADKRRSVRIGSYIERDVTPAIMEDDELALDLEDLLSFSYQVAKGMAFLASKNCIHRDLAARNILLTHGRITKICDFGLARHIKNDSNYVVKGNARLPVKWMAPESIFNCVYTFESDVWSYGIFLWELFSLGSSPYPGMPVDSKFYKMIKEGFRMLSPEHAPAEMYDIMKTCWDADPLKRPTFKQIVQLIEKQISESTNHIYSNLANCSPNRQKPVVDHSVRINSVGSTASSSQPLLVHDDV
Sequence of MAP3K4 (Q9Y6R4 whole entry): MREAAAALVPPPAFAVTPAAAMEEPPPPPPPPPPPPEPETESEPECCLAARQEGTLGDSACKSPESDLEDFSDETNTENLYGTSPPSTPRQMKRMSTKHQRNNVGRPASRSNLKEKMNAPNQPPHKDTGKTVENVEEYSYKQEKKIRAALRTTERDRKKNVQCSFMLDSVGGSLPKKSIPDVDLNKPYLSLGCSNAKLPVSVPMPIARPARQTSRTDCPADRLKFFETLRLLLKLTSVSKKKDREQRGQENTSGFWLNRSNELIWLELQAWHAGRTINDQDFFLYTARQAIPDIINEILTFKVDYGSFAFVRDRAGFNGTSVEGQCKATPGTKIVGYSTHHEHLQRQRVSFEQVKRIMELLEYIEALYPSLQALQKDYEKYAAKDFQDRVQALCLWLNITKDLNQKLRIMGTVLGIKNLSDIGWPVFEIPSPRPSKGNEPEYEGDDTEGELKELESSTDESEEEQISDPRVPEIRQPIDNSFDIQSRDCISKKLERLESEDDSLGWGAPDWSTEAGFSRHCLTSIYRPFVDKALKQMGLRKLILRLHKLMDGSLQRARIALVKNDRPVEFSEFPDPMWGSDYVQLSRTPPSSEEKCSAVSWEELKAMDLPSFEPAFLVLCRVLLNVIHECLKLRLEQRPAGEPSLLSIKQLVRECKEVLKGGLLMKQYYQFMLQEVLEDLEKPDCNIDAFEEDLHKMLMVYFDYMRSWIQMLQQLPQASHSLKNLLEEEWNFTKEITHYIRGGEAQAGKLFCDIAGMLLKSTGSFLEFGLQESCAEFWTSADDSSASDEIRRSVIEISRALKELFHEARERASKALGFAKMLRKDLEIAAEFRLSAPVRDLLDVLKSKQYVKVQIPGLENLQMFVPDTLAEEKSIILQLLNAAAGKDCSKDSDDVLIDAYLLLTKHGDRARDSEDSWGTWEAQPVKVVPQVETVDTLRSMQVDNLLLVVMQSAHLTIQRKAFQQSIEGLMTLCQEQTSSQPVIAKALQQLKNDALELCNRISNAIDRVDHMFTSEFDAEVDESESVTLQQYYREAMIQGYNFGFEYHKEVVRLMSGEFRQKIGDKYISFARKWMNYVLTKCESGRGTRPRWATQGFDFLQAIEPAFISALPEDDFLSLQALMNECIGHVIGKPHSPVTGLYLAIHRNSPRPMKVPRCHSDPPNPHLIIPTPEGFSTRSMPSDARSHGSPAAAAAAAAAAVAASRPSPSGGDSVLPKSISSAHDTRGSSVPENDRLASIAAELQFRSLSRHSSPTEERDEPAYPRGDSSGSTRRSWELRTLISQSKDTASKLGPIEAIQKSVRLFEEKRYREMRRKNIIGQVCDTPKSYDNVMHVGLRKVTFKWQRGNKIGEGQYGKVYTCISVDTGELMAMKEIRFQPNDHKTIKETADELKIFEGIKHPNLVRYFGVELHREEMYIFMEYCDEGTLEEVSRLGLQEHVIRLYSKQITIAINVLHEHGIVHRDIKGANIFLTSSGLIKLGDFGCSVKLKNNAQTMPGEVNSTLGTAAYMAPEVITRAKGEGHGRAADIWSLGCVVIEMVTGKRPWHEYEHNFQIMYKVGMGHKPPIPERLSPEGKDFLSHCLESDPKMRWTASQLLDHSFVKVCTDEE

With Cc1ccc(NC(=O)c2cccc(C(F)(F)F)c2)cc1Nc1cc(-c2cccnc2)nc2[nH]ccc12 [HZX-02-059] the remaining binding at 1 µM [1] was 77%, the remaining binding at 1 µM [2] was 48% and the remaining binding at 1 µM (ACVR2B) was 71%. It also gave a remaining binding at 1 µM (BRSK2) of 99%, a remaining binding at 1 µM (CLK4) of 94% and a remaining binding at 1 µM (CSF1R) of 6.1%. It also gave a remaining binding at 1 µM (DAPK2) of 100%, a remaining binding at 1 µM (FGFR3(G697C)) of 100% and a remaining binding at 1 µM (HCK) of 84%. It also gave a remaining binding at 1 µM (KIT(D816H)) of 100%, a remaining binding at 1 µM (LRRK2) of 100% and a remaining binding at 1 µM (MAP3K4) of 100%. It also gave a remaining binding at 1 µM (MAP4K3) of 97%, a remaining binding at 1 µM (MET) of 94% and a remaining binding at 1 µM (MRCKA) of 88%. The remaining binding at 1 µM (MUSK) was 100%, the remaining binding at 1 µM (RIOK3) was 100% and the remaining binding at 1 µM [3] was 79%. The remaining binding at 1 µM (SIK) was 90%, the remaining binding at 1 µM (SNARK) was 99% and the remaining binding at 1 µM (STK39) was 94%. It also gave a remaining binding at 1 µM (SYK) of 100%, a remaining binding at 1 µM (TEC) of 96% and a remaining binding at 1 µM (YSK4) of 100%.
